Results: BindingDB's records for doi:10.1021/jm970389+ (Abbott Laboratories, 1998)

Assay: Binding potency against Platelet activating factor (PAF) receptor using [3H]C18-PAF as radioligand on rabbit platelet membranes

| Compound | Ki [nM] |
| --- | --- |
| Cc1nc2cnccc2n1Cc1ccc(C(=O)c2cn(C(=O)N(C)C)c3cccc(C(=O)N(C)C)c23)cc1 [3-[4-(2-Methyl-imidazo[4,5-c]pyridin-1-ylmethyl)-benzoyl]-indole-1,4-dicarboxylic acid bis-dimethylamide] | 11 |
| Cc1nc2cnccc2n1Cc1ccc(C(=O)c2cn(C(=O)N(C)C)c3ccccc23)cc1 [3-[4-(2-Methyl-imidazo[4,5-c]pyridin-1-ylmethyl)-benzoyl]-indole-1-carboxylic acid dimethylamide] | 6.8 |
| COC(=O)c1cccc2c1c(C(=O)c1ccc(Cn3c(C)nc4c(Cl)nccc43)cc1)cn2C(=O)N(C)C [3-[4-(4-Chloro-2-methyl-imidazo[4,5-c]pyridin-1-ylmethyl)-benzoyl]-1-dimethylcarbamoyl-1H-indole-4-carboxylic acid methyl ester] | 1.8 |
| Cc1nc2cnccc2n1CCCCCC(=O)c1cn(C(=O)N(C)C)c2cccc(-c3ccc(F)cc3)c12 [4-(4-Fluoro-phenyl)-3-[6-(2-methyl-imidazo[4,5-c]pyridin-1-yl)-hexanoyl]-indole-1-carboxylic acid dimethylamide] | 3.2 |
| Cc1nc2cnccc2n1Cc1ccc(C(=O)c2cn(C(=O)N(C)C)c3cccc(NC(=O)c4ccccc4)c23)cc1 [4-Benzoylamino-3-[4-(2-methyl-imidazo[4,5-c]pyridin-1-ylmethyl)-benzoyl]-indole-1-carboxylic acid dimethylamide] | 2 |
| Cc1nc2cnccc2n1Cc1ccc(C(=O)c2cn(C(=O)N(C)C)c3cccc(Br)c23)cc1 [4-Bromo-3-[4-(2-methyl-imidazo[4,5-c]pyridin-1-ylmethyl)-benzoyl]-indole-1-carboxylic acid dimethylamide] | 11 |
| Cc1nc2ncccc2n1Cc1ccc(C(=O)c2cn(C(=O)N(C)C)c3cccc(Cl)c23)cc1 [4-Chloro-3-[4-(2-methyl-imidazo[4,5-b]pyridin-1-ylmethyl)-benzoyl]-indole-1-carboxylic acid dimethylamide] | 0.9 |
| Cc1nc2cnccc2n1Cc1ccc(C(=O)c2cn(C(=O)N(C)C)c3cccc(Cl)c23)cc1 [4-Chloro-3-[4-(2-methyl-imidazo[4,5-c]pyridin-1-ylmethyl)-benzoyl]-indole-1-carboxylic acid dimethylamide] | 5.4 |
| CCc1cccc2c1c(C(=O)c1ccc(Cn3c(C)nc4cnccc43)cc1)cn2C(=O)N(C)C [4-Ethyl-3-[4-(2-methyl-imidazo[4,5-c]pyridin-1-ylmethyl)-benzoyl]-indole-1-carboxylic acid dimethylamide] | 0.91 |
| C#Cc1cccc2c1c(C(=O)c1ccc(Cn3c(C)nc4cnccc43)c(F)c1)cn2C(=O)NC [4-Ethynyl-3-[3-fluoro-4-(2-methyl-imidazo[4,5-c]pyridin-1-ylmethyl)-benzoyl]-indole-1-carboxylic acid methylamide] | 0.63 |
| C#Cc1cccc2c1c(C(=O)c1ccc(Cn3c(C)nc4cnccc43)cc1)cn2C(=O)N(C)C [4-Ethynyl-3-[4-(2-methyl-imidazo[4,5-c]pyridin-1-ylmethyl)-benzoyl]-indole-1-carboxylic acid dimethylamide] | 1.3 |
| C#Cc1cccc2c1c(C(O)c1ccc(Cn3c(C)nc4cnccc43)c(F)c1)cn2C(=O)N(C)C (stereo not given) [4-Ethynyl-3-{[3-fluoro-4-(2-methyl-imidazo[4,5-c]pyridin-1-ylmethyl)-phenyl]-hydroxy-methyl}-indole-1-carboxylic acid dimethylamide] | 1.5 |
| Cc1nc2cnccc2n1Cc1ccc(C(=O)c2cn(C(=O)N(C)C)c3cccc(F)c23)cc1 [4-Fluoro-3-[4-(2-methyl-imidazo[4,5-c]pyridin-1-ylmethyl)-benzoyl]-indole-1-carboxylic acid dimethylamide] | 5.1 |
| Cc1nc2cnccc2n1Cc1ccc(C(=O)c2cn(C(=O)N(C)C)c3cccc(O)c23)cc1 [4-Hydroxy-3-[4-(2-methyl-imidazo[4,5-c]pyridin-1-ylmethyl)-benzoyl]-indole-1-carboxylic acid dimethylamide] | 6.1 |
| COC(=O)c1[nH]c2cccc(OC)c2c1C(=O)c1ccc(Cn2c(C)nc3cnccc32)cc1 [4-Methoxy-3-[4-(2-methyl-imidazo[4,5-c]pyridin-1-ylmethyl)-benzoyl]-1H-indole-2-carboxylic acid methyl ester] | 0.51 |
| COc1cccc2c1c(C(=O)c1ccc(Cn3c(C)nc4cnccc43)cc1)cn2C(=O)N(C)C [4-Methoxy-3-[4-(2-methyl-imidazo[4,5-c]pyridin-1-ylmethyl)-benzoyl]-indole-1-carboxylic acid dimethylamide] | 2 |
| Cc1cccc2c1c(C(=O)c1ccc(Cn3c(C)nc4cnccc43)cc1)cn2C(=O)N(C)C [4-Methyl-3-[4-(2-methyl-imidazo[4,5-c]pyridin-1-ylmethyl)-benzoyl]-indole-1-carboxylic acid dimethylamide] | 0.82 |
| Cc1cccc2c1c(C(=O)CN1CCC(n3c(C)nc4cnccc43)CC1)cn2C(=O)N(C)C [4-Methyl-3-{2-[4-(2-methyl-imidazo[4,5-c]pyridin-1-yl)-piperidin-1-yl]-acetyl}-indole-1-carboxylic acid dimethylamide] | 2 |
| Cc1nc2cnccc2n1Cc1ccc(C(=O)c2cn(C(=O)N(C)C)c3ccc(-c4ccc(F)cc4)cc23)cc1 [5-(4-Fluoro-phenyl)-3-[4-(2-methyl-imidazo[4,5-c]pyridin-1-ylmethyl)-benzoyl]-indole-1-carboxylic acid dimethylamide] | 190 |
| Cc1nc2cnccc2n1CCCN(C)CC(=O)c1cn(C(=O)N(C)C)c2cc(-c3ccc(F)cc3)ccc12 [6-(4-Fluoro-phenyl)-3-(2-{methyl-[3-(2-methyl-imidazo[4,5-c]pyridin-1-yl)-propyl]-amino}-acetyl)-indole-1-carboxylic acid dimethylamide] | 140 |
| Cc1nc2cnccc2n1CC(=O)c1cn(C(=O)N(C)C)c2cc(-c3ccc(F)cc3)ccc12 [6-(4-Fluoro-phenyl)-3-[2-(2-methyl-imidazo[4,5-c]pyridin-1-yl)-acetyl]-indole-1-carboxylic acid dimethylamide] | > 1000 |
| Cc1nc2cnccc2n1Cc1cccc(C(=O)c2cn(C(=O)N(C)C)c3cc(-c4ccc(F)cc4)ccc23)c1 [6-(4-Fluoro-phenyl)-3-[3-(2-methyl-imidazo[4,5-c]pyridin-1-ylmethyl)-benzoyl]-indole-1-carboxylic acid dimethylamide] | 180 |
| Cc1nc2cnccc2n1-c1ccc(C(=O)c2cn(C(=O)N(C)C)c3cc(-c4ccc(F)cc4)ccc23)cc1 [6-(4-Fluoro-phenyl)-3-[4-(2-methyl-imidazo[4,5-c]pyridin-1-yl)-benzoyl]-indole-1-carboxylic acid dimethylamide] | 260 |
| Cc1nc2cnccc2n1C1CCN(C(=O)c2cn(C(=O)N(C)C)c3cc(-c4ccc(F)cc4)ccc23)CC1 [6-(4-Fluoro-phenyl)-3-[4-(2-methyl-imidazo[4,5-c]pyridin-1-yl)-piperidine-1-carbonyl]-indole-1-carboxylic acid dimethylamide] | 3.4 |
| Cc1nc2cnccc2n1CN1CCN(S(=O)(=O)c2cn(C(=O)N(C)C)c3cc(-c4ccc(F)cc4)ccc23)CC1 [6-(4-Fluoro-phenyl)-3-[4-(2-methyl-imidazo[4,5-c]pyridin-1-ylmethyl)-piperazine-1-sulfonyl]-indole-1-carboxylic acid dimethylamide] | 1.2 |
